For 13 molecules, IC50 and Activity results are on record in ChEMBL document CHEMBL3046875, “Potential cytotoxic and apoptosis inducing agents: synthesis and evaluation of methoxy-substituted chalcones against human lung and cervical cancers” (Med Chem Res, 2013).

In test [1] the test system is HeLa. In words: Cytotoxicity against Homo sapiens (human) HeLa cells assessed as cell viability after 72 hr by MTT assay. In kind it is functional, cell-based. On the technique in general: Tetrazolium dyes change colour on reduction, which living cells bring about.
Test [2] deals with A549. Put plainly: Cytotoxicity against Homo sapiens (human) A549 cells assessed as cell viability after 72 hr by MTT assay. It is filed as functional, cell-based. The note with it: A549, 72 h.
Test [3] deals with HCT-15. In words: Cytotoxicity against Homo sapiens (human) HCT15 cells assessed as cell viability after 72 hr by MTT assay. The note with it: HCT-15, 72 h. It is filed as functional, cell-based.
The subject of test [4] is A549. In words: Cell cycle arrest in Homo sapiens (human) A549 cells assessed as accumulation at G2/M phase at 2 uM after 48 hr by propidium iodide staining-based flow cytometric analysis (reference value: 11.03%). It is filed as functional. On the technique in general: A flow cytometer gives signals particle by particle.
For test [5], the system named is A549. Put plainly: Cell cycle arrest in Homo sapiens (human) A549 cells assessed as accumulation at sub G0 phase at 2 uM after 48 hr by propidium iodide staining-based flow cytometric analysis (reference value: 1.37%). It is filed as functional.
Test [6] has as its system HeLa. In words: Cell cycle arrest in Homo sapiens (human) HeLa cells assessed as accumulation at G2/M phase at 2 uM after 48 hr by propidium iodide staining-based flow cytometric analysis (reference value: 22.68%). In kind it is functional.
Test [7] deals with HeLa. Put plainly: Cell cycle arrest in Homo sapiens (human) HeLa cells assessed as accumulation at S phase at 2 uM after 48 hr by propidium iodide staining-based flow cytometric analysis (reference value: 14.14%). In kind it is functional.
For test [8], the system named is HeLa. Put plainly: Cell cycle arrest in Homo sapiens (human) HeLa cells assessed as accumulation at G0/G1 phase at 2 uM after 48 hr by propidium iodide staining-based flow cytometric analysis (reference value: 63.3%). It is filed as functional.
The subject of test [9] is HeLa. In words: Cell cycle arrest in Homo sapiens (human) HeLa cells assessed as accumulation at sub G0 phase at 2 uM after 48 hr by propidium iodide staining-based flow cytometric analysis (reference value: 0.88%). It is filed as functional.
Test [10] has as its system HeLa. Put plainly: Cell cycle arrest in Homo sapiens (human) HeLa cells assessed as accumulation at sub G0 phase at IC50 after 48 hr by propidium iodide staining-based flow cytometric analysis (reference value: 0.88%). In kind it is functional.
Test [11] concerns A549. In words: Cell cycle arrest in Homo sapiens (human) A549 cells assessed as accumulation at G0/G1 phase at IC50 after 48 hr by propidium iodide staining-based flow cytometric analysis (reference value: 74.9%). It is filed as functional.
Test [12] has as its system A549. In words: Cell cycle arrest in Homo sapiens (human) A549 cells assessed as accumulation at G2/M phase at IC50 after 48 hr by propidium iodide staining-based flow cytometric analysis (reference value: 11.03%). It is filed as functional.
Test [13] deals with A549. In words: Cell cycle arrest in Homo sapiens (human) A549 cells assessed as accumulation at S phase at IC50 after 48 hr by propidium iodide staining-based flow cytometric analysis (reference value: 12.83%). In kind it is functional.
The test system of test [14] is HeLa. In words: Cell cycle arrest in Homo sapiens (human) HeLa cells assessed as accumulation at S phase at IC50 after 48 hr by propidium iodide staining-based flow cytometric analysis (reference value: 14.14%). In kind it is functional.
Test [15] deals with HeLa. In words: Cell cycle arrest in Homo sapiens (human) HeLa cells assessed as accumulation at G0/G1 phase at IC50 after 48 hr by propidium iodide staining-based flow cytometric analysis (reference value: 63.3%). It is filed as functional.
The test system of test [16] is A549. In words: Cell cycle arrest in Homo sapiens (human) A549 cells assessed as accumulation at sub G0 phase at IC50 after 48 hr by propidium iodide staining-based flow cytometric analysis (reference value: 1.37%). In kind it is functional.
In test [17] the test system is HeLa. In words: Cell cycle arrest in Homo sapiens (human) HeLa cells assessed as accumulation at G2/M phase at IC50 after 48 hr by propidium iodide staining-based flow cytometric analysis (reference value: 22.68%). It is filed as functional.

Structures are written as SMILES. Bounds are passed on as bounds.

For the molecule `COc1ccc(C(=O)/C=C/c2ccc(OC)c(OC)c2OC)c(F)c1`, the half-maximal inhibitory concentration (IC50) (in general, the point on the concentration scale where inhibition reaches its midpoint) in test [1] is 211 nM; in test [2] it was 108 nM; in test [3], 31.7 nM.
For `COc1ccc(C(=O)/C=C/c2ccc(OC)cc2OC)c(F)c1`, in that order: 260 nM, above 100000 nM and 72.2 nM.
As for `COc1cccc2c1C(=O)c1c(O)c3c(c(O)c1C2=O)C[C@@](O)(C(=O)CO)C[C@@H]3O[C@H]1C[C@H](N)[C@H](O)[C@H](C)O1.Cl` [DOXORUBICIN HYDROCHLORIDE], the Activity is reported as 0.98% in test [4]; 1.34% in test [5]; 36.19% in test [6]; 55.74% in test [7]; 30.86% in test [8]; 61.55% in test [9].
For the molecule `COc1ccc(/C=C/C(=O)c2ccccc2F)c(OC)c1`, the Activity was determined as 29.37% in [10]; 5.64% in [11]; 6.18% in [12]; 59.98% in [13]; 12.64% in test [14]; 22.61% in test [15]. The values for the Activity in [16] and in test [17] were 20.48% and 56.9%, respectively. Further, the IC50 in test [1] was found to be 175 nM; in test [2], 87.3 nM; in test [3], 55.9 nM.
For the molecule `COc1ccc(OC)c(/C=C/C(=O)c2ccccc2F)c1`, the Activity in test [10] amounted to 27.52%; in [11], 1.36%; in [12] it was 16.84%; in [13], 89.78%; in [14] it was 0.94%; in test [15] it was 7.9%. In addition, the Activity is on record as 20.31% in [16] and 35.28% in [17]. The figures for the IC50 in [1], in test [2] and in [3] were 96.1 nM, 114 nM and 61.1 nM, respectively.
For `COc1cc(/C=C/C(=O)c2ccccc2F)cc(OC)c1`, the Activity in [10] is recorded as 9.11%; in [11] it was 2.66%; in [12], 2.22%; in test [13] it was 9.85%; in test [14] it was 18.21%; in test [15], 70.2%. Further, the values for the Activity in [16] and in [17] were 61.59% and 26.68%, respectively. In addition, the IC50 in test [1] stood at 62.9 nM; in test [2] it was 43.6 nM; in test [3] it was 20.9 nM.
In the case of `COc1cc(/C=C/C(=O)c2ccccc2F)cc(OC)c1OC`, the concentration for half-maximal inhibition (IC50) in test [1] is 228 nM; in [2], above 100000 nM; in test [3] it was 134 nM.
Take `COc1ccc(C(=O)/C=C/c2cc(OC)c(OC)c(OC)c2)c(F)c1`: the values for the half-maximal inhibitory concentration (IC50) in test [1], in [2] and in test [3] were 144 nM, 108 nM and 50.5 nM, respectively.
Regarding `COc1cc(OC)c(/C=C/C(=O)c2ccccc2F)c(OC)c1`, the IC50 in [1] is 50.6 nM; in test [2], above 100000 nM; in [3], 79 nM.
Consider `COc1cc(OC)c(OC)cc1/C=C/C(=O)c1ccccc1F`, for which the half-maximal inhibitory concentration (IC50) in [1] is 293 nM; in test [2] it was 79 nM; in test [3], 55.3 nM.
As for `COc1ccc(C(=O)/C=C/c2cc(OC)c(OC)cc2OC)c(F)c1`, the figures for the IC50 in [1], in [2] and in test [3] were above 100000 nM, 202 nM and 72.2 nM, respectively.
With `COc1ccc(C(=O)/C=C/c2c(OC)cc(OC)cc2OC)c(F)c1`, the IC50 in test [1], in test [2] and in test [3] was above 100000 nM each time.
As to `COc1cc(/C=C/C(=O)c2ccc(OC)cc2F)cc(OC)c1`, the IC50 was found to be 243 nM in [1], 101 nM in [2] and 55.3 nM in test [3].
